In the Kinase Knowledgebase extract (Sharma et al. 2016):
pIC50: −log10 of the molar value.

The compounds below were run against MAPK14 (human) (UniProt Q16539) (assay: Inhibition of MAPK14 Kinase Activity).
MAPK14 (human), sequence (Q16539 whole entry, looked up): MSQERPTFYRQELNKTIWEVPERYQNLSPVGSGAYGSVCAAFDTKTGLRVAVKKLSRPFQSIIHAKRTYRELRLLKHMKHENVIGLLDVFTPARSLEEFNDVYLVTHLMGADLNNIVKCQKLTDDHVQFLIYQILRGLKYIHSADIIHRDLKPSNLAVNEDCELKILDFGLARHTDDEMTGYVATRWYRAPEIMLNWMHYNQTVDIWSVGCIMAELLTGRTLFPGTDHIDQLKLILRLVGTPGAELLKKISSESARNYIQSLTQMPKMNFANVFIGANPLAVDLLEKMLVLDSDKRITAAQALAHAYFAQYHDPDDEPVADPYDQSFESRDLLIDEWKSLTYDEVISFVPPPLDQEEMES

pIC50, > 5.00:
CCNc1nc(-c2ccc(F)cc2C)c2ccc(=O)n(-c3ccccc3F)c2n1, CSc1nc(-c2ccc(F)cc2C)c2ccc(=O)n(-c3c(F)cccc3F)c2n1, Cc1cc(F)ccc1-c1nc(S(C)(=O)=O)nc2c1ccc(=O)n2C1CCCCC1, CSc1nc(-c2ccc(F)cc2C)c2ccc(=O)n(-c3c(C)cccc3C)c2n1, Cc1cc(F)ccc1-c1nc(NC2CCOC2)nc2c1ccc(=O)n2-c1c(F)cccc1F (stereo not given), Cc1cc(F)ccc1-c1nc(N[C@@H](C)CO)nc2c1ccc(=O)n2-c1c(F)cccc1F, Cc1cc(F)ccc1-c1nc(NCC(=O)N2CCCC2)nc2c1ccc(=O)n2-c1c(F)cccc1F, CSCCCNc1nc(-c2ccc(F)cc2C)c2ccc(=O)n(-c3c(F)cccc3F)c2n1, CSc1nc(-c2ccccc2F)c2ccc(=O)n(-c3c(F)cccc3F)c2n1, Cc1cc(F)ccc1-c1nc(NCc2ncc[nH]2)nc2c1ccc(=O)n2-c1c(F)cccc1F, CCN(CC)CCNc1nc(-c2ccccc2Cl)c2ccc(=O)n(-c3ccccc3Cl)c2n1, Cc1cc(F)ccc1-c1nc(S(C)(=O)=O)nc2c1ccc(=O)n2-c1c(C)cccc1C, Cc1cc(F)ccc1-c1nc(NC2CCOCC2)nc2c1ccc(=O)n2-c1c(F)cccc1F, CSc1nc(-c2ccc(F)cc2C)c2ccc(=O)n(-c3ccccc3F)c2n1, Cc1cc(F)ccc1-c1nc(NCC(N)=O)nc2c1ccc(=O)n2-c1c(F)cccc1F
